In paper PMC3826719, “Impact of Polymorphic Variants on the Molecular Pharmacology of the Two-Agonist Conformations of the Human β1-Adrenoceptor” (PLoS ONE, 2013):
Like-named read-outs stand apart in the source and are kept apart here.

Legend:
[1] = system: endogenous P2y2 receptors; assay: 3H-inositol phosphate accumulation, positive controls; type: cell-based, Chinese Hamster; details: 100 µM
Procedure: Cells were grown to confluence in clear plastic tissue culture treated 24-well plates containing ^3H-myo-inositol (4 µCi/ml). Cells were washed then incubated for 30 minutes in 1 ml of serum free media containing 20 mM LiCl (37°C, 5% CO2). Agonists (in 10 µl) were then added and the incubation continued for 1 hour. All reagents were then removed and 1 ml of cold (−20°C) methanol/0.12M HCl (1∶1, v/v) added to each well. […] Total ^3H-inositol phosphate levels were determined by liquid scintillation counting. 100 µM ATP and 100 µM UTP was used as positive controls.

[2] = target: T1, human β1-adrenoceptor polymorphic variant Ser49/Arg389 (Homo sapiens, UniProt P08588, G389R); assay: 3H-cAMP accumulation, Ser49/Arg389; type: cell-based; parameters: expressed in transfected cells; pcDNA3.1); details: for Emax: read-out: % isop (% isoprenaline maximal response); for Log EC50 Site 2 / EC50: biphasic cAMP response; for EC50: read-out: Log EC50 Site 1 (converted)
Procedure: (§1) Cells were grown to confluence in clear plastic tissue culture treated 24-well plates and ^3H-cAMP accumulation performed as previously described. Briefly, cells pre-labelled with ^3H-adenine by incubation for 2 hours with 2 µCi/ml ^3H-adenine in serum-free media (0.5 ml per well). The cells were washed, then 1 ml serum-free media containing 1 mM IBMX (3-isobutyl-1-methylxanthine) was added to each well and the cells incubated for 15 minutes. Agonists (in 10 µl serum-free media) were added to each well and the plates incubated for 5 hours in order to maximise the responses. The assay was terminated by adding 50 µl concentrated HCl per well, the plates frozen, thawed and ^3H-cAMP separated from other ^3H-nucleotides by sequential Dowex and alumina column chromatography. […] Where pertussis toxin (PTX) was used, cells were incubated in the 24 well plates with PTX at 100 ng/ml for 24 hours before experimentation.
(§2) The affinities of antagonists (KD values, Table 3) were calculated from the shift of the agonist concentration response curve in the presence of a fixed concentration of antagonist using equation 5: [drawing 5] (5) where DR (dose ratio) is the ratio of the agonist concentration required to stimulate an identical response in the presence and absence of a fixed concentration of antagonist [B].

[3] = target: T2, human wildtype β1-adrenoceptor (Ser49/Gly389) (Homo sapiens, UniProt P08588); assay: 3H-cAMP accumulation, wildtype; type: cell-based; parameters: expressed in transfected cells; details: for Emax: read-out: % isop (% isoprenaline maximal response); for Log EC50 Site 2 / EC50: biphasic cAMP response; for EC50: read-out: Log EC50 Site 1 (converted)
Procedure: as §1, §2

[4] = target: T3, human β1-adrenoceptor polymorphic variant Gly49/Gly389 (Homo sapiens, UniProt P08588, S49G); assay: 3H-cAMP accumulation, Gly49/Gly389; type: cell-based; parameters: expressed in transfected cells; pcDNA3.1); details: for Emax: read-out: % isop (% isoprenaline maximal response); for EC50 / Log EC50 Site 2: biphasic cAMP response; for EC50: read-out: Log EC50 Site 1 (converted)
Procedure: as §1, §2

[5] = target: T2, human wildtype β1-adrenoceptor (Ser49/Gly389); assay: cell-based; details: Log KD
Procedure: (§3) The cells were washed twice with 200 µl 4°C phosphate buffered saline, 100 µl Microscint 20 was added to each well, and the plates counted on a Topcount at 21°C for 2 minutes per well.
(§4) All data points were performed in triplicate and each 96-well plate also contained 6 determinations of total and non-specific binding.

[6] = target: T3, human β1-adrenoceptor polymorphic variant Gly49/Gly389; assay: cell-based; details: Log KD
Procedure: as §3, §4

[7] = target: T1, human β1-adrenoceptor polymorphic variant Ser49/Arg389; assay: cell-based; details: Log KD
Procedure: as §3, §4

[8] = system: ERK1/2 MAPKinase activation; assay: Alphascreen Surefire MAPKinase (pERK1/2) assay, positive control; type: cell-based, Chinese Hamster; details: 1 µM, 30 minutes
Procedure: Extracellular-signal-regulated kinases ERK1/2 activation was measured using a Surefire Alphascreen pERK1/2 kit as per manufacturer's instructions. Briefly, cells were grown to confluence in clear plastic tissue culture treated 96-well plates then serum starved by incubation in serum-free media for 24 hours before experimentation. Agonist in 20 µl was added to the well (1∶5 dilution in wells) and incubated for 5–60 minutes (37°C, 5% CO2). Reagents were then removed and 20 µl lysis buffer added to each well. Plates were frozen at −20°C overnight, thawed, and the assay then conducted as per manufacturer's instructions. After 2 hours in the dark, the plates were read on an Envision plate reader using standard Alphascreen settings. 1 µM phorbol ester was used as the positive control.

[9] = target: T4, human adenosine A1 receptor (Homo sapiens, UniProt P30542); assay: 3H-cAMP accumulation in CHO-A1 cells, pertussis toxin control; type: cell-based; details: 100 ng/ml for 24 hours, CHO cells expressing the human adenosine A1 receptor
T4 construct: expressed in transfected cells
T4 sequence (P30542 1-326): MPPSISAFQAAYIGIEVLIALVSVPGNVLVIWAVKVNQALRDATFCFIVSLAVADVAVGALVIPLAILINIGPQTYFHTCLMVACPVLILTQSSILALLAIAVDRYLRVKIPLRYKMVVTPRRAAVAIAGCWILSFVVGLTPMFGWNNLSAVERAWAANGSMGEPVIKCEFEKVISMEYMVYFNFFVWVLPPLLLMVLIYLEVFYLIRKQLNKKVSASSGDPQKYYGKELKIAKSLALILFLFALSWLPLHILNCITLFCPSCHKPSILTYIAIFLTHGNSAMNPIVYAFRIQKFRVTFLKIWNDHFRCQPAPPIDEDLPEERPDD

[10] = cells expressing Gly49/Gly389 receptor
[11] = cells expressing Ser49/Arg389 β1-receptors
[12] = cells expressing wildtype Ser49/Gly389 receptor
[13] = 3H-cAMP accumulation, main stable WT Ser49/Gly389 cell line (WT original), maximum defined by 10 µM isoprenaline

T3 sequence (P08588 whole entry S49G): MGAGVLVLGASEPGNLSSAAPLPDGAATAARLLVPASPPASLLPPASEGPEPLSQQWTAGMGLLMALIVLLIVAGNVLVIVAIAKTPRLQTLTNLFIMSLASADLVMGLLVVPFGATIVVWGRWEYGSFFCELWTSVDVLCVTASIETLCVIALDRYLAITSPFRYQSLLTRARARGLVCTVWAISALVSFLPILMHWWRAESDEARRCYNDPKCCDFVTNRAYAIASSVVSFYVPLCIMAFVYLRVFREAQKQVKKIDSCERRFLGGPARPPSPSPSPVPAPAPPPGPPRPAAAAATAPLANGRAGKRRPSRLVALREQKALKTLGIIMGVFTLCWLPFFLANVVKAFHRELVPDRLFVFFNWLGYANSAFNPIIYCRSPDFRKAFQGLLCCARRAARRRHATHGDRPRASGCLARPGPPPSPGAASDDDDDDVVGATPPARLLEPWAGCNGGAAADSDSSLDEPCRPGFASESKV
T1 sequence (P08588 whole entry G389R): as the sequence (P08588 whole entry S49G) above, with G49S, G389R counted along it
T2 sequence (P08588 whole entry): as the sequence (P08588 whole entry S49G) above, with G49S counted along it

Nc1ncnc2c1ncn2[C@@H]1O[C@H](COP(=O)(O)OP(=O)(O)OP(=O)(O)O)[C@@H](O)[C@H]1O [ATP]
3H-inositol phosphate accumulation response [1, 10]: 2.77±0.40 fold over basal
3H-inositol phosphate accumulation response [1, 11]: 2.96±0.28 fold over basal
3H-inositol phosphate accumulation response [1, 12]: 2.18±0.17 fold over basal

CNC[C@H](O)c1ccc(O)c(O)c1 [Adrenaline]
Emax [2]: 91.6 ± 2.2%
% isop (% isoprenaline maximal response) [3, 13]: full agonists
Emax [3]: 96.4 ± 2.1%
Emax [4]: 95.9 ± 3.2%

CC(C)NCC(O)COc1ccc(CC(N)=O)cc1 (stereo not shown) [Atenolol]
Emax ([2]; 3H-cAMP accumulation, main stable Ser49/Arg389 cell line (original), maximum defined by 10 µM isoprenaline): 1.3 ± 0.2%
Emax [3, 13]: 0%
Emax ([4]; 3H-cAMP accumulation, main stable Gly49/Gly389 cell line (original), maximum defined by 10 µM isoprenaline): 0%

CC(C)(Cc1c[nH]c2ccccc12)NCC(O)COc1ccccc1C#N (stereo not shown) [Bucindolol]
% isoprenaline ([2]; % maximum isoprenaline response for the overall biphasic response, main Ser49/Arg389 cell line): 53.6±1.2%
% Site 1 ([2]; % of the response occurring at site 1, main Ser49/Arg389 cell line): 80.4±2.6%
% Site 1 ([2]; Ser49/Arg389 Cell line W81): 47.6 ± 3.3%
% Site 1 ([2]; Ser49/Arg389 Cell line W93): 51.5 ± 4.0%
Log EC50 Site 2 ([2]; Ser49/Arg389 Cell line W81): -6.22 ± 0.15
EC50 ([2]; Ser49/Arg389 Cell line W81): 0.724 nM
Log EC50 Site 2 ([2]; Ser49/Arg389 Cell line W93): -7.50 ± 0.07
EC50 ([2]; Ser49/Arg389 Cell line W93): 0.589 nM
Log EC50 Site 2 ([2]; main Ser49/Arg389 cell line): −6.98±0.19
EC50 ([2]; main Ser49/Arg389 cell line): 0.447 nM
% isoprenaline ([2]; overall biphasic response, Ser49/Arg389 Cell line W81): 34.8 ± 2.0%
% isoprenaline ([2]; overall biphasic response, Ser49/Arg389 Cell line W93): 32.8 ± 1.1%
Kd ([5]; competition with 3H-CGP 12177, WT transiently transfected populations): 1.32 nM
Kd ([5]; competition with 3H-CGP 12177, additional stable WT cell line T3): 1.45 nM
Kd ([5]; competition with 3H-CGP 12177, additional stable WT cell line T88): 0.355 nM
Kd ([5]; competition with 3H-CGP 12177, whole cells, main stable CHO cell line WT (Ser49/Gly389)): 0.275 nM
% isoprenaline ([3]; % maximum isoprenaline response for the overall biphasic response, main WT Ser49/Gly389 cell line): 24.6±4.1%
% Site 1 ([3]; % of the response occurring at site 1, main WT Ser49/Gly389 cell line): 59.8±2.8%
% Site 1 ([3]; WT cell line T3): 75.6 ± 4.5%
% Site 1 ([3]; WT cell line T88): 48.0 ± 4.2%
Log EC50 Site 2 ([3]; WT cell line T3): -7.09 ± 0.15
EC50 ([3]; WT cell line T3): 0.708 nM
Log EC50 Site 2 ([3]; WT cell line T88): -7.46 ± 0.09
EC50 ([3]; WT cell line T88): 0.234 nM
Log EC50 Site 2 ([3]; main WT Ser49/Gly389 cell line): −7.53±0.05
EC50 ([3]; main WT Ser49/Gly389 cell line): 0.347 nM
% isoprenaline ([3]; overall biphasic response, WT cell line T3): 43.4 ± 2.0%
% isoprenaline ([3]; overall biphasic response, WT cell line T88): 23.6 ± 2.4%
Kd ([6]; competition with 3H-CGP 12177, Gly49/Gly389 transiently transfected populations): 1.58 nM
Kd ([6]; competition with 3H-CGP 12177, additional stable Gly49/Gly389 cell line V87): 0.427 nM
Kd ([6]; competition with 3H-CGP 12177, whole cells, main stable CHO cell line Gly49/Gly389): 0.339 nM
% isoprenaline ([4]; % maximum isoprenaline response for the overall biphasic response, main Gly49/Gly389 cell line): 25.7±0.8%
% Site 1 ([4]; % of the response occurring at site 1, main Gly49/Gly389 cell line): 51.5±2.4%
% Site 1 ([4]; Gly49/Gly389 Cell line V6): 54.0 ± 2.7%
% Site 1 ([4]; Gly49/Gly389 Cell line V87): 69.3 ± 7.5%
EC50 ([4]; Gly49/Gly389 Cell line V6): 0.282 nM
Log EC50 Site 2 ([4]; Gly49/Gly389 Cell line V87): -7.34 ± 0.23
EC50 ([4]; Gly49/Gly389 Cell line V87): 0.309 nM
Log EC50 Site 2 ([4]; main Gly49/Gly389 cell line): −7.45±0.11
EC50 ([4]; main Gly49/Gly389 cell line): 0.417 nM
% isoprenaline ([4]; overall biphasic response, Gly49/Gly389 Cell line V6): 27.5 ± 1.0%
% isoprenaline ([4]; overall biphasic response, Gly49/Gly389 Cell line V87): 22.8 ± 1.1%
Kd ([7]; competition with 3H-CGP 12177, Ser49/Arg389 transiently transfected populations): 1.82 nM
Kd ([7]; competition with 3H-CGP 12177, additional stable Ser49/Arg389 cell line W81): 0.275 nM
Kd ([7]; competition with 3H-CGP 12177, additional stable Ser49/Arg389 cell line W93): 0.646 nM
Kd ([7]; competition with 3H-CGP 12177, whole cells, main stable CHO cell line Ser49/Arg389): 0.347 nM

NC[C@H](O)c1ccc(O)c(O)c1 [Noradrenaline]
Emax [2]: 96 ± 3%
% isop (% isoprenaline maximal response) [3, 13]: full agonists
Emax [3]: 95.5 ± 2%
Emax [4]: 99.1 ± 3.7%

O=c1ccn([C@@H]2O[C@H](COP(=O)(O)OP(=O)(O)OP(=O)(O)O)[C@@H](O)[C@H]2O)c(=O)[nH]1 [UTP]
3H-inositol phosphate accumulation response [1, 10]: 2.32±0.29 fold over basal
3H-inositol phosphate accumulation response [1, 11]: 2.63±0.40 fold over basal
3H-inositol phosphate accumulation response [1, 12]: 1.87±0.11 fold over basal

CCCCCCCCCCCCCC(=O)O[C@@H]1[C@@H](C)[C@@]2(O)[C@@H](C=C(CO)C[C@]3(O)C(=O)C(C)=C[C@@H]23)[C@@H]2C(C)(C)[C@]12OC(C)=O [phorbol ester]
MAPKinase maximum stimulation ([8]; Gly49/Gly389 receptor cells): 12.6±3.8 fold over basal
MAPKinase maximum stimulation ([8]; Ser49/Arg389 receptor cells): 7.4±1.4 fold over basal
MAPKinase maximum stimulation ([8]; wildtype receptor cells): 11.9±1.6 fold over basal

pertussis toxin (PTX)
Effect of pre-incubation on the cimaterol or CGP 12177 3H-cAMP responses ([2]; 100 ng/ml for 24 hours, Ser49/Arg389 receptor): no effect
Effect of pre-incubation on the cimaterol or CGP 12177 3H-cAMP responses ([3]; 100 ng/ml for 24 hours, WT receptor): no effect
Effect of pre-incubation on the cimaterol or CGP 12177 3H-cAMP responses ([4]; 100 ng/ml for 24 hours, Gly49/Gly389 receptor): no effect
Effect of pre-incubation on Gi-coupled inhibition of 3H-cAMP accumulation in response to cyclopentyladenosine (CPA) [9]: completely inhibited
